Assay results as given in patent US12077503B2, “Substituted cyclic amides and their use as herbicides” (FMC CORPORATION, priority 2015, dated 2024).

What was measured:
Type in all cases: in vivo
[1] = tested on: barnyardgrass (Echinochloa crus-galli); assay: Test A preemergence; details: Echinochloa crus-galli, pre-emergence, 240 h, Preemergence
Outline: (§1)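 Visual injury scores from 0, no effect, to 100, complete control, were assigned versus untreated controls roughly 10 d after treatment in the greenhouse. Test chemicals, formulated with surfactant in a non-phytotoxic solvent, were applied to planted seeds as a preemergence soil spray or postemergence to one- to two-leaf plants 2 to 10 cm tall, in loam–sand soil.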

[2] = tested on: giant foxtail (Setaria faberii); assay: Test A preemergence; details: Setaria faberi, pre-emergence, 240 h, Preemergence
Outline: as §1

[3] = tested on: ryegrass, Italian (Italian ryegrass, Lolium multiflorum); assay: Test A preemergence; details: Lolium multiflorum, pre-emergence, 240 h, Preemergence
Outline: as §1

[4] = tested on: ragweed (common ragweed, Ambrosia elatior); assay: Test A preemergence; details: Ambrosia artemisiifolia, pre-emergence, 240 h, Preemergence
Outline: as §1

[5] = tested on: Kochia (Kochia scoparia); assay: Test A preemergence; details: Bassia scoparia, pre-emergence, 240 h, Preemergence
Outline: as §1

[6] = tested on: pigweed (Amaranthus retroflexus); assay: Test A preemergence; details: Amaranthus retroflexus, pre-emergence, 240 h, Preemergence
[7] = tested on: barnyardgrass (Echinochloa crus-galli); assay: Test A postemergence; details: Echinochloa crus-galli, post-emergence, 240 h, Postemergence, read-out: Plant response rating, Barnyardgrass
Outline: as §1

[8] = tested on: wheat (Triticum aestivum); assay: Test A postemergence; details: Triticum aestivum, post-emergence, 240 h, Postemergence, read-out: Plant response rating, Wheat
Outline: as §1

[9] = tested on: giant foxtail (Setaria faberii); assay: Test A postemergence; details: Setaria faberi, post-emergence, 240 h, Postemergence, read-out: Plant response rating, Foxtail, Giant
Outline: as §1

[10] = tested on: blackgrass (Alopecurus myosuroides); assay: Test A postemergence; details: Alopecurus myosuroides, post-emergence, 240 h, Postemergence, read-out: Plant response rating, Blackgrass
Outline: as §1

[11] = tested on: Galium (catchweed bedstraw, Galium aparine); assay: Test A postemergence; details: Galium, post-emergence, 240 h, Postemergence, read-out: Plant response rating, Galium
Outline: as §1

[12] = tested on: ryegrass, Italian (Italian ryegrass, Lolium multiflorum); assay: Test A postemergence; details: Lolium multiflorum, post-emergence, 240 h, Postemergence, read-out: Plant response rating, Ryegrass, Italian
Outline: as §1

[13] = tested on: ragweed (common ragweed, Ambrosia elatior); assay: Test A postemergence; details: Ambrosia artemisiifolia, post-emergence, 240 h, Postemergence, read-out: Plant response rating, Ragweed
Outline: as §1

[14] = tested on: corn (Zea mays); assay: Test A postemergence; details: Zea mays, post-emergence, 240 h, Postemergence
Outline: as §1

[15] = tested on: Kochia (Kochia scoparia); assay: Test A postemergence; details: Bassia scoparia, post-emergence, 240 h, Postemergence, read-out: Plant response rating, Kochia
Outline: as §1

[16] = tested on: pigweed (Amaranthus retroflexus); assay: Test A postemergence; details: Amaranthus retroflexus, post-emergence, 240 h, Postemergence, read-out: Plant response rating, Pigweed
Outline: as §1

[17] = tested on: rice (Oryra sativa); assay: Test B flooded paddy test; details: Oryza sativa, Flood, 250 g ai/ha; scale of 0 to 100 where 0 is no effect and 100 is complete control; read-out: Rice plant response rating
Outline: (§2)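 Percent control, visually estimated after 13–15 d in the greenhouse on a 0–100 basis, compares treated pots with untreated ones; compound was put into paddy water 3 cm above the soil when plants had two leaves.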

[18] = tested on: barnyardgrass (Echinochloa crus-galli); assay: Test B flooded paddy test; details: Echinochloa crus-galli, Flood, 250 g ai/ha; scale of 0 to 100 where 0 is no effect and 100 is complete control; read-out: Barnyardgrass plant response rating
Outline: as §2

[19] = tested on: ducksalad (Heteranthera limosa); assay: Test B flooded paddy test; details: Heteranthera limosa, Flood, 250 g ai/ha; scale of 0 to 100 where 0 is no effect and 100 is complete control; read-out: Ducksalad plant response rating
Outline: as §2

[20] = tested on: sedge, umbrella (small-flower umbrella sedge, Cyperus difformis); assay: Test B flooded paddy test; details: Cyperus difformis, Flood, 250 g ai/ha; scale of 0 to 100 where 0 is no effect and 100 is complete control; read-out: Sedge, Umbrella plant response rating
Outline: as §2

[21] = 125 g ai/ha, visual injury after approximately 10 d, 0 to 100 scale where 0 is no effect and 100 is complete control
[22] = 31 g ai/ha, visual injury after approx. 10 d, 0 to 100 scale, 0 no effect, 100 complete control

## CC(C)Oc1cc([C@H]2CN(C)C(=O)[C@@H]2C(=O)Nc2cccc(F)c2F)cc(C(F)(F)F)c1 [Compound 972]
[1]; 125 g ai/ha, visual injury rating after approximately 10 d, read-out: Barnyardgrass plant response rating (0 to 100 scale, 0 is no effect, 100 is complete control)
  pest or weed control at 125 g/ha: 80%
[1]; 31 g ai/ha, 0 to 100 scale (0 no effect, 100 complete control), read-out: Plant response rating, Barnyardgrass
  pest or weed control at 31 g/ha: 70%
[2]; 125 g ai/ha, visual injury rating after approximately 10 d, read-out: Foxtail, Giant plant response rating (0 to 100 scale, 0 is no effect, 100 is complete control)
  pest or weed control at 125 g/ha: 80%
[2]; 31 g ai/ha, 0 to 100 scale (0 no effect, 100 complete control), read-out: Plant response rating, Foxtail, Giant
  pest or weed control at 31 g/ha: 80%
[3]; 125 g ai/ha, visual injury rating after approximately 10 d, read-out: Ryegrass, Italian plant response rating (0 to 100 scale, 0 is no effect, 100 is complete control)
  pest or weed control at 125 g/ha: 90%
[3]; 31 g ai/ha, 0 to 100 scale (0 no effect, 100 complete control), read-out: Plant response rating, Ryegrass, Italian
  pest or weed control at 31 g/ha: 50%
[4]; 125 g ai/ha, visual injury rating after approximately 10 d, read-out: Ragweed plant response rating (0 to 100 scale, 0 is no effect, 100 is complete control)
  pest or weed control at 125 g/ha: 20%
[4]; 31 g ai/ha, 0 to 100 scale (0 no effect, 100 complete control), read-out: Plant response rating, Ragweed
  pest or weed control at 31 g/ha: 0%
[5]; 125 g ai/ha, visual injury rating after approximately 10 d, read-out: Kochia plant response rating (0 to 100 scale, 0 is no effect, 100 is complete control)
  pest or weed control at 125 g/ha: 0%
[5]; 31 g ai/ha, 0 to 100 scale (0 no effect, 100 complete control), read-out: Plant response rating, Kochia
  pest or weed control at 31 g/ha: 0%
[6]; 125 g ai/ha, visual injury rating after approximately 10 d, read-out: Pigweed plant response rating (0 to 100 scale, 0 is no effect, 100 is complete control)
  pest or weed control at 125 g/ha: 0%
[6]; 31 g ai/ha, 0 to 100 scale (0 no effect, 100 complete control), read-out: Plant response rating, Pigweed
  pest or weed control at 31 g/ha: 0%
[7]; [21]
  pest or weed control at 125 g/ha: 50%
[7]; [22]
  pest or weed control at 31 g/ha: 50%
[8]; [21]
  plant injury at 125 g/ha: 40%
[8]; [22]
  plant injury at 31 g/ha: 20%
[9]; [21]
  pest or weed control at 125 g/ha: 60%
[9]; [22]
  pest or weed control at 31 g/ha: 30%
[10]; [21]
  pest or weed control at 125 g/ha: 0%
[10]; [22]
  pest or weed control at 31 g/ha: 0%
[11]; [21]
  pest or weed control at 125 g/ha: 30%
[11]; [22]
  pest or weed control at 31 g/ha: 0%
[12]; [21]
  pest or weed control at 125 g/ha: 20%
[12]; [22]
  pest or weed control at 31 g/ha: 0%
[13]; [21]
  pest or weed control at 125 g/ha: 30%
[13]; [22]
  pest or weed control at 31 g/ha: 0%
[14]; [21]
  Corn plant response rating (crop injury, 0 = no effect, 100 = complete kill) at 125 g/ha: 60%
[14]; [22]
  Corn plant response rating (crop injury, 0 = no effect, 100 = complete kill) at 31 g/ha: 20%
[15]; [21]
  pest or weed control at 125 g/ha: 0%
[15]; [22]
  pest or weed control at 31 g/ha: 0%
[16]; [21]
  pest or weed control at 125 g/ha: 30%
[16]; [22]
  pest or weed control at 31 g/ha: 20%
[17]
  pest or weed control at 250 g/ha: 50%
[18]
  pest or weed control at 250 g/ha: 80%
[19]
  pest or weed control at 250 g/ha: 85%
[20]
  pest or weed control at 250 g/ha: 0%
